The values below come from patent publication US20110009421A1, “COMPOUND HAVING 6-MEMBERED AROMATIC RING” (TAKEDA PHARMACEUTICAL COMPANY LIMITED, priority 2008, published 2011).

The target in the test is T1, human GPR52 (Homo sapiens, UniProt Q9Y2T5).
T1 construct: expressed in transfected cells; host or cells: CHO (dhfr-) cells
T1 sequence (Q9Y2T5 whole entry): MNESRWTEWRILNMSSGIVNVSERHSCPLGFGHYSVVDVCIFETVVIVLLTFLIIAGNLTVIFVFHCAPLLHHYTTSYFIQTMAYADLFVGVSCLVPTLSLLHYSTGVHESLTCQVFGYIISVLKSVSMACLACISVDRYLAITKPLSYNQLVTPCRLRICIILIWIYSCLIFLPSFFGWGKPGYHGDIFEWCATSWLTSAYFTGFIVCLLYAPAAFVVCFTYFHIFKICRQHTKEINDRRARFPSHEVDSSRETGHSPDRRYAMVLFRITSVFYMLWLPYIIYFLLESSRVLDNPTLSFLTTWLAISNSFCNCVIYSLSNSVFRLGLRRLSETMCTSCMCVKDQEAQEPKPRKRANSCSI
As to the kind of experiment: Increased intracellular cAMP levels in human GPR52 expression CHO cells (AlphaScreen cAMP assay). Type of test: cell-based. Conditions: 1 μM test compound, 30 min at 37° C., human GPR52 expression CHO (dhfr−) cells; intracellular cAMP level, 100% = 1 μM 3-(6-(2-(3,4-dimethoxyphenyl)ethoxy)pyridin-2-yl)-N-(2-pyrrolidin-1-ylethyl)benzamide, 0% = DMSO. As for the experimental part: Increased Intracellular cAMP Levels in Human GPR52 Expression CHO Cells
1×10^4 human GPR52 expression CHO (dhfr−) cells were incubated with 1 μM test compound for 30 min at 37° C. in 30 μL assay buffer (HBSS (containing Ca^2+ and Mg^2+), 0.5% BSA, 100 μM IBMX, 100 μM Ro 20-1724, 5 mM HEPES (pH 7.55)) using an OptiPlate-384 (by PerkinElmer). The intracellular cAMP level was then assayed with an EnVision (by PerkinElmer) according to the protocol of the AlphaScreen cAMP Assay Kit (by PerkinElmer). The GPR52 agonist activity was calculated, assuming the intracellular cAMP level to be 100% in the presence of 1 μM of 3-(6-(2-(3,4-dimethoxyphenyl)ethoxy)pyridin-2-yl)-N-(2-pyrrolidin-1-ylethyl)benzamide obtained in Reference Example 39 and assuming the intracellular cAMP level to be 0% when DMSO was added instead of test compound.
As to `O=C(NCCN1CCCC1)c1cccc(-c2cccc(Oc3cccc(Cl)c3Cl)n2)c1` [Working Example 83, 3-(6-(2,3-Dichlorophenoxy)pyridin-2-yl)-N-(2-pyrrolidin-1-ylethyl)benzamide], the “GPR52 agonist activity (%)” value was 97%.

For the molecule `O=C(NCCO)c1cccc(-c2cccc(Oc3cc(Cl)cc(Cl)c3)n2)c1` [Working Example 87, 3-(6-(3,5-dichlorophenoxy)pyridin-2-yl)-N-(2-hydroxyethyl)benzamide], the “GPR52 agonist activity (%)” value was 79%.

On to `O=C(NCCCO)c1cccc(-c2cccc(Oc3cc(Cl)cc(Cl)c3)n2)c1` [Working Example 88, 3-(6-(3,5-Dichlorophenoxy)pyridin-2-yl)-N-(3-hydroxypropyl)benzamide], for which the “GPR52 agonist activity (%)” value was 62%.

On to `CC(C)(CO)NC(=O)c1cccc(-c2cccc(Oc3cc(Cl)cc(Cl)c3)n2)c1` [Working Example 91, 3-(6-(3,5-Dichlorophenoxy)pyridin-2-yl)-N-(2-hydroxy-1,1-dimethylethyl)benzamide], for which the “GPR52 agonist activity (%)” value is 61%.

On to `C[C@H](CC#N)NC(=O)c1cccc(-c2cccc(Oc3cc(Cl)cc(Cl)c3)n2)c1` [Working Example 94, N-((1R)-2-Cyano-1-methylethyl)-3-(6-(3,5-dichlorophenoxy)pyridin-2-yl)benzamide], for which the “GPR52 agonist activity (%)” value was found to be 58%.

`C[S+]([O-])CCNC(=O)c1cccc(-c2cccc(Oc3cc(Cl)cc(Cl)c3)n2)c1` (stereo not shown) [Working Example 96, 3-(6-(3,5-dichlorophenoxy)pyridin-2-yl)-N-(2-(methylsulfinyl)ethyl)benzamide]: the “GPR52 agonist activity (%)” value is reported as 66%.

For `O=C(NCCO)c1cccc(-c2cccc(Sc3ccc(Cl)cc3Cl)n2)c1` [Working Example 101, 3-(6-((2,4-dichlorophenyl)thio)pyridin-2-yl)-N-(2-hydroxyethyl)benzamide], the “GPR52 agonist activity (%)” value is reported as 53%.

Regarding `COc1ccc(CCNc2nccc(-n3ccc4cc(C(=O)NCCN(C)C)ccc43)n2)cc1OC` [Working Example 102, 1-(2-((2-(3,4-Dimethoxyphenyl)ethyl)amino)pyrimidin-4-yl)-N-(2-(dimethylamino)ethyl)-1H-indole-5-carboxamide], the “GPR52 agonist activity (%)” value worked out at 89%.

Regarding `N#CCCNC(=O)c1cc(-c2cccc(Oc3ccc(Cl)cc3Cl)n2)ccc1F` [Working Example 113, N-(2-cyanoethyl)-5-(6-(2,4-dichlorophenoxy)pyridin-2-yl)-2-fluorobenzamide], the “GPR52 agonist activity (%)” value was determined as 77%.

With `N#CCCNC(=O)c1cccc(-c2cccc(Oc3cc(Cl)cc(Cl)c3)n2)c1` [Working Example 121, N-(2-Cyanoethyl)-3-(6-(3,5-dichlorophenoxy)pyridin-2-yl)benzamide], the “GPR52 agonist activity (%)” value turned out to be 51%.

Turning to `N#CCCNC(=O)c1cccc(-c2cccc(Oc3cccc(Cl)c3)n2)c1` [Working Example 125, 3-(6-(3-Chlorophenoxy)pyridin-2-yl)-N-(2-cyanoethyl)benzamide], the “GPR52 agonist activity (%)” value came to 55%.

Take `N#CCCNC(=O)c1cccc(-c2cccc(Oc3cncc(Cl)c3)n2)c1` [Working Example 134, 3-(6-((5-Chloropyridin-3-yl)oxy)pyridin-2-yl)-N-(2-cyanoethyl)benzamide]: the “GPR52 agonist activity (%)” value worked out at 48%.

On to `COc1ccccc1CCNc1nccc(-c2cccc(C(=O)NCCN3CCCC3)c2)n1` [Working Example 138], for which the “GPR52 agonist activity (%)” value was found to be 104%.

As to `COc1ccc(CCNc2nccc(-c3cccc(C(=O)NCCN4CCCC4)c3)n2)cc1OC` [Working Example 141], the “GPR52 agonist activity (%)” value turned out to be 113%.

Take `O=C(NCCN1CCCC1)c1cccc(-c2ccnc(NCCc3cccc(F)c3)n2)c1` [Working Example 143]: the “GPR52 agonist activity (%)” value amounted to 72%.

`O=C(NCCN1CCCC1)c1cccc(-c2ccnc(NCCc3cccc(C(F)(F)F)c3)n2)c1` [Working Example 146, N-(2-pyrrolidin-1-ylethyl)-3-[2-({2-[3-(trifluoromethyl)phenyl]ethyl}amino)pyrimidin-4-yl]benzamide]: the “GPR52 agonist activity (%)” value amounted to 135%.

Turning to `O=C(NCCN1CCCC1)c1cccc(-c2ccnc(NCCc3cccs3)n2)c1` [Working Example 152], the “GPR52 agonist activity (%)” value worked out at 64%.

Regarding `O=C(NCCN1CCCC1)c1cccc(-c2ccnc(NCCc3ccc(F)c(Cl)c3)n2)c1` [Working Example 164], the “GPR52 agonist activity (%)” value worked out at 107%.

For `O=C(NCCN1CCCC1)c1cccc(-c2ccnc(NCCc3ccc(Cl)c(F)c3)n2)c1` [Working Example 165], the “GPR52 agonist activity (%)” value was determined as 68%.

Consider `COc1cc(CCNc2nccc(-c3cccc(C(=O)NCCN4CCCC4)c3)n2)ccc1F` [Working Example 166], for which the “GPR52 agonist activity (%)” value amounted to 109%.

With `CNC(=O)c1cccc(-c2cccc(OCCc3ccc(OC)c(OC)c3)n2)c1` [Working Example 167], the “GPR52 agonist activity (%)” value came out at 68%.

On to `COc1ccc(CCOc2cccc(-c3cccc(C(=O)NCCCO)c3)n2)cc1OC` [Working Example 170], for which the “GPR52 agonist activity (%)” value is 79%.

In the case of `COc1ccc(CCOc2cccc(-c3cccc(C(=O)NCCC(N)=O)c3)n2)cc1OC` [Working Example 175], the “GPR52 agonist activity (%)” value is recorded as 110%.

`COc1ccc(CCOc2cccc(-c3cccc(C(=O)NCCc4ccncc4)c3)n2)cc1OC` [Working Example 201]: the “GPR52 agonist activity (%)” value is 85%.

Regarding `COc1ccc(CCOc2cccc(-c3cccc(C(=O)NCCCn4ccnc4)c3)n2)cc1OC` [Working Example 203], the “GPR52 agonist activity (%)” value is 97%.

As for `COc1ccc(CCOc2cccc(-c3cccc(C(=O)NCCNc4ccccc4)c3)n2)cc1OC` [Working Example 208], the “GPR52 agonist activity (%)” value came to 67%.

Regarding `COc1ccc(CCOc2cccc(-c3cccc(C(=O)Nc4ccccn4)c3)n2)cc1OC` [Working Example 219], the “GPR52 agonist activity (%)” value is 94%.

For `COc1ccc(CCOc2cccc(-c3cccc(C(=O)Nc4ccc5ncccc5c4)c3)n2)cc1OC` [Working Example 227], the “GPR52 agonist activity (%)” value came to 65%.

For the molecule `COc1ccc(CCOc2cccc(-c3cccc(NC(=O)[C@@H]4CSC(=O)N4)c3)n2)cc1OC` [Working Example 245], the “GPR52 agonist activity (%)” value is reported as 58%.

For the molecule `COc1ccc(CCOc2cccc(-c3cccc(NC(=O)Cn4ccnc4)c3)n2)cc1OC` [Working Example 302], the “GPR52 agonist activity (%)” value is on record as 57%.

Regarding `COc1ccc(CCOc2cccc(-c3cccc(NC(=O)CC4NCCc5ccccc54)c3)n2)cc1OC` (stereo not shown) [Working Example 318], the “GPR52 agonist activity (%)” value stood at 82%.
